{"source": "patent US9192673B2", "about": "“Fine dry particulate resveratrol active agent compositions and topical formulations including the same” (priority 2013, dated 2015)", "origin": "cited, not measured here", "settings": "background statement", "data": [{"smiles": "Oc1ccc(/C=C/c2cc(O)cc(O)c2)cc1", "note": "[resveratrol, 3,5,4′-trihydroxystilbene]", "values": [{"measurement": "solubility in water and in lipophilic components", "value": "almost insoluble"}]}]}
